Structures can show the parent of a compound that is named as a salt.
Target: PDE4D3 (Homo sapiens (Human), UniProt Q08499)
Assay: PDE4D3 inhibition (selectivity testing)
Assay type: biochemical
Conditions: not given
Text: The compounds have also been tested for their activities on PDEs1-9 and PDE11.

Chain of PDE4D3 (Q08499 other isoform, or with tags, fused parts or gaps): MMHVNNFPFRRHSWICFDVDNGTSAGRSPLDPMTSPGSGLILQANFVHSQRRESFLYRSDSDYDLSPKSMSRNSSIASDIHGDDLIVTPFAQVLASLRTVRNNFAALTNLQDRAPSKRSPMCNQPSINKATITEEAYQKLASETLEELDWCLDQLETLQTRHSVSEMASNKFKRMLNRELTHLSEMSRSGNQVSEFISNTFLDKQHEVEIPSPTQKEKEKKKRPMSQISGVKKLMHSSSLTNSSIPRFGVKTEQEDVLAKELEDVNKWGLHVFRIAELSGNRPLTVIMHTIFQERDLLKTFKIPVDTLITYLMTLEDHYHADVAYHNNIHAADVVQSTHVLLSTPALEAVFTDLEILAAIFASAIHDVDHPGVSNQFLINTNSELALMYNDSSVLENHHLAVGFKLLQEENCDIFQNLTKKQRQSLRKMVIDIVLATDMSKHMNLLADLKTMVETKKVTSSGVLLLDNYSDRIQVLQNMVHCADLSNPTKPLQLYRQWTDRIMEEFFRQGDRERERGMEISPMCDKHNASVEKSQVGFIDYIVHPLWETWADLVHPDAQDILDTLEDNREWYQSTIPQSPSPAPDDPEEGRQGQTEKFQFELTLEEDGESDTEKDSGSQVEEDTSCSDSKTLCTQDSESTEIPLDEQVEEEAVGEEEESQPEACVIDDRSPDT

Compound	IC50
CCc1nc(O)c(Cc2ccc3oc4ccccc4c3c2)c2cc(OC)c(OC)cc12 [Compound 6, 4-(Dibenzo[b,d]furan-2-ylmethyl)-1-ethyl-6,7-dimethoxyisoquinolin-3-ol hydrochloride]	0.9 nM
CCc1nc(O)c(Cc2cnc3cc(OC)ccc3c2)c2cc(OC)c(OC)cc12 [Compound 31, 1-ethyl-6,7-dimethoxy-4-((7-methoxyquinolin-3-yl)methyl)isoquinolin-3-ol dihydrochloride]	82 nM
COc1ccc2nc(NCC(F)(F)F)c(Cc3c(O)nc(C(C)C)c4cc(OC)c(OC)cc34)cc2c1 [Compound 51, 1-isopropyl-6,7-dimethoxy-4-((6-methoxy-2-(2,2,2-trifluoroethylamino)quinolin-3-yl)methyl)isoquinolin-3-ol dihydrochloride]	280 nM

Target: PDE10A (Homo sapiens, UniProt Q9Y233)
Sequence (Q9Y233 whole entry, looked up): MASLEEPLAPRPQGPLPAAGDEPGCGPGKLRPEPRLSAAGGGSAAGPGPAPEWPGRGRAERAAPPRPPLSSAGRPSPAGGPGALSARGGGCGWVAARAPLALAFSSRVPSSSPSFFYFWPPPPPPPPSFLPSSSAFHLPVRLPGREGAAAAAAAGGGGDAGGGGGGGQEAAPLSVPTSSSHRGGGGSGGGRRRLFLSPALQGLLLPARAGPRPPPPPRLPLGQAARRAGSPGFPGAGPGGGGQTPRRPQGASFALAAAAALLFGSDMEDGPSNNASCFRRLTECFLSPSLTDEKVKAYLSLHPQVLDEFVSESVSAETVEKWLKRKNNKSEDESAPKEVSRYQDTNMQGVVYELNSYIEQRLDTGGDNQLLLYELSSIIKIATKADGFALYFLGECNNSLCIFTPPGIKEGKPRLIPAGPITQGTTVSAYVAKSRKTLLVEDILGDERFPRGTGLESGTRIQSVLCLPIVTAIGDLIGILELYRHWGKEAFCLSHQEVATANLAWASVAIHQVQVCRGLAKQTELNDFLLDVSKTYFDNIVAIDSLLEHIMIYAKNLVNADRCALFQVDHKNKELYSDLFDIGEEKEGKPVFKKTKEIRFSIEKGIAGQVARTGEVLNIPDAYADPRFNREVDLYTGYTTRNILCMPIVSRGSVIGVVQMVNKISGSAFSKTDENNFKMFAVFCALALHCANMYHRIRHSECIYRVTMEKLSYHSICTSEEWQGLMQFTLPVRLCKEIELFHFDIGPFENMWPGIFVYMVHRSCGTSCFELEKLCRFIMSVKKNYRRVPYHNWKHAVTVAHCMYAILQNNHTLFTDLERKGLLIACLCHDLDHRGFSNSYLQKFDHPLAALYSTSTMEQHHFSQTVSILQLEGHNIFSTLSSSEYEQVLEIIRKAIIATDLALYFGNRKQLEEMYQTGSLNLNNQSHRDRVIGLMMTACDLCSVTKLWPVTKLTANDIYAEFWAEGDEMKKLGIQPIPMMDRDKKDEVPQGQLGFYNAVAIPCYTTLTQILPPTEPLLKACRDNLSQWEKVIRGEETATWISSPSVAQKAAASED
Assay: Phosphodiesterase assay (TR-FRET, LANCE cAMP kit)
Assay type: biochemical
Conditions: PDE10A (BPS Bioscience) 200 pg/well, biotin-cAMP substrate, 60 min at room temperature
Protocol: (§1) The PDE assay is based on the homogenous time-resolved fluorescence resonance energy transfer (TR-FRET) technology (LANCE® from Perkin Elmer). […] When there is PDE activity, resulting in the degradation of the cyclic nucleotide, the complex is not formed and a decrease in signal is observed.
(§2) The phosphodiesterase assay was developed using the LANCE® cAMP kit (PerkinElmer). The assay buffer contained HBSS with 5 mM HEPES, 0.1% BSA, and 1.5 mM MgCl2, pH 7.4. PDE10A (BPS Bioscience) was used at 200 pg/well (with a specific activity of 3200 pmole/min/μg with assay conditions: 10 mM Tris-HCl, pH7.4, 10 mM MgCl2, 1 mM MnCl2, 200 μM cAMP, 2.5 kU 5′ nucleotidase, 37° C., 20 min). […] Chemical compounds were dissolved in DMSO (final concentration 2% (v/v)).
(§3) In a 384-well plate, 2 μL inhibitor and 3 μL PDE were added to the well, followed by the addition of 5 μl substrate biotinylated cAMP (1:5). After 60 min incubation at room temperature, 10 μL of assay detection mixture was added to the assay plate. After 1 h at room temperature, the signal was measured on EnVision™ (Perkin Elmer).

Compound	IC50
CCc1nc(O)c(Cc2cnc3cc(OC)ccc3c2)c2cc(OC)c(OC)cc12 [Compound 31, 1-ethyl-6,7-dimethoxy-4-((7-methoxyquinolin-3-yl)methyl)isoquinolin-3-ol dihydrochloride]	13 nM
CCNc1nc2ccc(OC)cc2cc1Cc1c(O)nc(C(C)C)c2cc(OC)c(OC)cc12 [Compound 47, 4-((2-(ethylamino)-6-methoxyquinolin-3-yl)methyl)-1-isopropyl-6,7-dimethoxyisoquinolin-3-ol dihydrochloride]	11 nM
COc1ccc2nc(NCC(F)(F)F)c(Cc3c(O)nc(C(C)C)c4cc(OC)c(OC)cc34)cc2c1 [Compound 51, 1-isopropyl-6,7-dimethoxy-4-((6-methoxy-2-(2,2,2-trifluoroethylamino)quinolin-3-yl)methyl)isoquinolin-3-ol dihydrochloride]	55 nM
CCCc1nc(O)c(Cc2cc3cc4c(cc3nc2NCC)OCO4)c2cc(OC)c(OC)cc12 [Compound 64, 4-((6-(ethylamino)-[1,3]dioxolo[4,5-g]quinolin-7-yl)methyl)-6,7-dimethoxy-1-propylisoquinolin-3-ol dihydrochloride]	1.2 nM
COc1cc2c(C(C)C)nc(O)c(Cc3cnc4ccccc4c3)c2cc1OC [Compound 79, 1-Isopropyl-6,7-dimethoxy-4-(quinolin-3-ylmethyl)isoquinolin-3-ol dihydrochloride]	88 nM
CCCc1nc(O)c(Cc2ccc3nc(C)ccc3c2)c2cc(OC)c(OC)cc12 [Compound 80, 6,7-dimethoxy-4-((2-methylquinolin-6-yl)methyl)-1-propylisoquinolin-3-ol dihydrochloride]	3.2 nM

The next lines start with the values.

IC50	Compound
30 nM	CCc1nc(O)c(Cc2cc3cc(OC)ccc3nc2NCC(F)(F)F)c2cc(OC)c(OC)cc12 [Compound 45, 1-ethyl-6,7-dimethoxy-4-((6-methoxy-2-(2,2,2-trifluoroethylamino)quinolin-3-yl)methyl)isoquinolin-3-ol dihydrochloride]
4.6 nM	CCCc1nc(O)c(Cc2cc3cc(OCC)ccc3nc2NCC)c2cc(OC)c(OC)cc12 [Compound 49, 4-((6-ethoxy-2-(ethylamino)quinolin-3-yl)methyl)-6,7-dimethoxy-1-propylisoquinolin-3-ol dihydrochloride]
0.28 nM	CCCc1nc(O)c(Cc2cc3cc(OC)ccc3nc2NCC)c2cc(OC)c(OC)cc12 [Compound 50, 4-((2-(ethylamino)-6-methoxyquinolin-3-yl)methyl)-6,7-dimethoxy-1-propylisoquinolin-3-ol dihydrochloride]
1.5 nM	CCCNc1nc2ccc(OC)cc2cc1Cc1c(O)nc(CCC)c2cc(OC)c(OC)cc12 [Compound 52, 6,7-dimethoxy-4-((6-methoxy-2-(propylamino)quinolin-3-yl)methyl)-1-propylisoquinolin-3-ol dihydrochloride]
221 nM	CCNc1nc2ccc(OC)cc2cc1Cc1c(O)nc(CNS(C)(=O)=O)c2cc(OC)c(OC)cc12 [Compound 58, N-((4-((2-(ethylamino)-6-methoxyquinolin-3-yl)methyl)-3-hydroxy-6,7-dimethoxyisoquinolin-1-yl)methyl)methanesulfonamide dihydrochloride]
2 nM	CCc1nc(O)c(Cc2cc3cc(OC)ccc3nc2NCCOC)c2cc(OC)c(OC)cc12 [Compound 77, 1-Ethyl-6,7-dimethoxy-4-((6-methoxy-2-(2-methoxyethylamino)quinolin-3-yl)methyl)isoquinolin-3-ol dihydrochloride]
0.3 nM	CCCc1nc(O)c(Cc2cc3cc(OCC)c(F)cc3nc2NCC)c2cc(OC)c(OC)cc12 [Compound 86, 4-((6-Ethoxy-2-(ethylamino)-7-fluoroquinolin-3-yl)methyl)-6,7-dimethoxy-1-propylisoquinolin-3-ol dihydrochloride]
1.8 nM	CCCc1nc(O)c(Cc2cc3cc(OCC)ccc3nc2NCCNC(C)=O)c2cc(OC)c(OC)cc12 [Compound 88, N-(2-((6-ethoxy-3-((3-hydroxy-6,7-dimethoxy-1-propylisoquinolin-4-yl)methyl)quinolin-2-yl)amino)ethyl)acetamide dihydrochloride]

Target: PDE10A
Assay: Phosphodiesterase assay (TR-FRET, LANCE cAMP kit)
Assay type: biochemical
Conditions: PDE10A (BPS Bioscience) 200 pg/well, biotin-cAMP substrate, 60 min at room temperature
Protocol: as §1, §2, §3

Compound	IC50
CCc1nc(O)c(Cc2ccc3oc4ccccc4c3c2)c2cc(OC)c(OC)cc12 [Compound 6, 4-(Dibenzo[b,d]furan-2-ylmethyl)-1-ethyl-6,7-dimethoxyisoquinolin-3-ol hydrochloride]	0.12 nM

From patent publication US8772316B2, “Substituted 6,7-dialkoxy-3-isoquinolinol derivatives as inhibitors of phosphodiesterase 10 (PDE10A)” (Allergan, Inc., priority 2011, dated 2014)
